≈ marks a conversion by molar mass, not a printed value.
Key:
Acinetobacter baumannii [1] = test: Antimicrobial activity against carbapenem-resistant Acinetobacter baumannii T183 isolate carrying one bla-OXA58 gene copy by agar dilution method; format: functional
Acinetobacter baumannii [2] = test: Antimicrobial activity against carbapenem-resistant Acinetobacter baumannii T186 isolate carrying three bla-OXA58 gene copies by agar dilution method; format: functional
[3] = molecular target: Beta-lactamase OXA-58 (Acinetobacter baumannii) (UniProt Q2TR58); test: Activity of OXA58 from Acinetobacter baumannii 183 isolate carrying one bla-OXA58 gene copy assessed as hydrolytic specific activity per mg of protein
Chain of Beta-lactamase OXA-58 (Acinetobacter baumannii) (Q2TR58 whole entry): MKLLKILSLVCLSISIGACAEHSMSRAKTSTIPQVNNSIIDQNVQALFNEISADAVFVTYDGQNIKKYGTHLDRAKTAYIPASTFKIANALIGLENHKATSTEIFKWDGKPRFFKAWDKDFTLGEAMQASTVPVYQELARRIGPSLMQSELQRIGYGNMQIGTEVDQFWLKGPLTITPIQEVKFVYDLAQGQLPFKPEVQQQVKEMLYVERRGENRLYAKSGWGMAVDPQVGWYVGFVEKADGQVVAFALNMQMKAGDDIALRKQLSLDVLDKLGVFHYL

[4] = molecular target: Beta-lactamase OXA-58 (Acinetobacter baumannii) (UniProt Q2TR58); test: Activity of Acinetobacter baumannii […] OXA58 assessed as hydrolytic specific activity per mg of protein
[5] = molecular target: Beta-lactamase OXA-58 (Acinetobacter baumannii) (UniProt Q2TR58); test: Activity of OXA58 from Acinetobacter baumannii 193 isolate carrying two bla-OXA58 gene copy assessed as hydrolytic specific activity per mg of protein
Acinetobacter baumannii [6] = test: Antimicrobial activity against carbapenem-resistant Acinetobacter baumannii T193 isolate carrying two bla-OXA58 gene copies by agar dilution method; format: functional
Acinetobacter baumannii [7] = test: Antimicrobial activity against carbapenem-resistant Acinetobacter baumannii BM4547 by agar dilution method; format: functional
[8] = molecular target: Beta-lactamase OXA-58 (Acinetobacter baumannii) (UniProt Q2TR58); test: Activity of OXA58 from Acinetobacter baumannii 186 isolate carrying three bla-OXA58 gene copy assessed as hydrolytic specific activity per mg of protein
[9] = molecular target: Beta-lactamase OXA-58 (Acinetobacter baumannii) (UniProt Q2TR58); test: Activity of OXA58 from Acinetobacter baumannii T193 isolate carrying two bla-OXA58 gene copy assessed as hydrolytic specific activity per mg of protein
[10] = molecular target: Beta-lactamase OXA-58 (Acinetobacter baumannii) (UniProt Q2TR58); test: Activity of OXA58 from Acinetobacter baumannii T186 isolate carrying three bla-OXA58 gene copy assessed as hydrolytic specific activity per mg of protein
Acinetobacter baumannii [11] = test: Antimicrobial activity against carbapenem-resistant Acinetobacter baumannii 183 isolate carrying one bla-OXA58 gene copy by agar dilution method; format: functional
Acinetobacter baumannii [12] = test: Antimicrobial activity against carbapenem-resistant Acinetobacter baumannii 193 isolate carrying two bla-OXA58 gene copies by agar dilution method; format: functional
Klebsiella pneumoniae = test: Antimicrobial activity against Klebsiella pneumoniae isolate expressing VIM1 gene; format: functional
[13] = molecular target: Beta-lactamase OXA-58 (Acinetobacter baumannii) (UniProt Q2TR58); test: Activity of OXA58 from Acinetobacter baumannii T183 isolate carrying one bla-OXA58 gene copy assessed as hydrolytic specific activity per mg of protein
Acinetobacter baumannii [14] = test: Antimicrobial activity against carbapenem-resistant Acinetobacter baumannii 186 isolate carrying three bla-OXA58 gene copies by agar dilution method; format: functional

Structure (SMILES) | MIC (Acinetobacter baumannii [1]) | MIC (Acinetobacter baumannii [2]) | Activity [3] | Activity [4] | Activity [5] | MIC (Acinetobacter baumannii [6]) | MIC (Acinetobacter baumannii [7]) | Activity [8] | Activity [9] | Activity [10] | MIC (Acinetobacter baumannii [11]) | MIC (Acinetobacter baumannii [12]) | MIC (Klebsiella pneumoniae) | Activity [13] | MIC (Acinetobacter baumannii [14])
CC(C)(O/N=C(\C(=O)N[C@@H]1C(=O)N2C(C(=O)[O-])=C(C[n+]3ccccc3)CS[C@H]12)c1csc(N)n1)C(=O)O [CEFTAZIDIME] | 8 µg/mL (≈ 14.6 µM) | 8 µg/mL (≈ 14.6 µM) | 0.075 U/mg | < 0.01 U/mg | 0.077 U/mg | 8 µg/mL (≈ 14.6 µM) | 4 µg/mL (≈ 7.32 µM) | – | – | – | – | – | – | – | –
C[C@@H](O)[C@H]1C(=O)N2C(C(=O)O)=C(SCCNC=N)C[C@H]12 [IMIPENEM ANHYDROUS] | 6 µg/mL (≈ 20 µM) | 64 µg/mL (≈ 214 µM) | 0.165 U/mg | < 0.01 U/mg | 0.227 U/mg | 16 µg/mL (≈ 53.4 µM) | 0.5 µg/mL (≈ 1.67 µM) | 0.27 U/mg | 0.365 U/mg | 0.388 U/mg | 16 µg/mL (≈ 53.4 µM) | 32 µg/mL (≈ 107 µM) | 2 µg/mL (≈ 6.68 µM) | 0.303 U/mg | –
C[C@@H](O)[C@H]1C(=O)N2C(C(=O)O)=C(S[C@@H]3CN[C@H](C(=O)N(C)C)C3)[C@H](C)[C@H]12 [MEROPENEM] | 3 µg/mL (≈ 7.82 µM) | 8 µg/mL (≈ 20.9 µM) | – | – | – | 4 µg/mL (≈ 10.4 µM) | 0.5 µg/mL (≈ 1.3 µM) | – | – | – | 4 µg/mL (≈ 10.4 µM) | 8 µg/mL (≈ 20.9 µM) | – | – | 12 µg/mL (≈ 31.3 µM)

Source: ChEMBL document CHEMBL1150784, “Multicopy blaOXA-58 gene as a source of high-level resistance to carbapenems in Acinetobacter baumannii” (2007)
